Test results as given in patent US20110314564A1, “ENZYMES AND METHODS FOR HYDROLYSING PHENYLUREAS, CARBAMATES AND ORGANOPHOSPHATES” (priority 2008, published 2011).

Legend:
[1] = biological target: PuhA (Arthrobacter globiformis, UniProt B8R4L9); assay: Hydrolysis of phenylurea, carbamate and organophosphate substrates by purified PuhA (LCMS / FBBS / A400 assays)
[2] = biological target: PuhB (Mycolicibacterium brisbanense, UniProt B8R4K0); assay: Hydrolysis of phenylurea, carbamate and organophosphate substrates by purified PuhB (LCMS / FBBS / A400 assays)
[3] = tested on: CN(C)C(=O)Nc1ccc(Cl)c(Cl)c1; assay: purified protein, by the assay type; conditions: pH 6.9, 25.0 °C

Compound	hydrolysis / turnover of the substrate (in words) ([1]; PuhA)	hydrolysis / turnover of the substrate (in words) ([2]; PuhB)	other results
CCOP(=O)(OCC)Oc1ccc([N+](=O)[O-])cc1 [paraoxon ethyl]	only slightly lower than isoproturon	only slightly lower than isoproturon	hydrolysis / turnover of the substrate (in words) ([1]; PuhA, listed as ethyl paraoxon): turned over by both proteins; hydrolysis / turnover of the substrate (in words) ([2]; PuhB, listed as ethyl paraoxon): turned over by both proteins
O=C(Nc1ccccc1)Nc1cnns1 [thidiazuron]	no detectable hydrolysis	no detectable hydrolysis	–
CNC(=O)N(C)c1nnc(C(C)(C)C)s1 [tebuthiuron]	no detectable hydrolysis	no detectable hydrolysis	–
CCN(CC)C(=O)SCc1ccc(Cl)cc1 [thiobencarb]	neither enzyme catalysed the hydrolysis	neither enzyme catalysed the hydrolysis	–
CN(C)C(=O)Oc1ccc([N+](=O)[O-])cc1 [DMNPC, N-dimethyl, O-4-nitrophenyl carbamate]	turned over at a higher efficiency than poor phenylurea substrates	turned over at a higher efficiency than poor phenylurea substrates	–
PuhB (Mycolicibacterium brisbanense)	–	–	Km ([3]; other: PuhB): 11.0 µM
CCCCN(C)C(=O)Nc1ccc(Cl)c(Cl)c1 [neburon]	no detectable hydrolysis	no detectable hydrolysis	–
CC1CCCCC1NC(=O)Nc1ccccc1 (stereo not drawn) [siduron]	no detectable hydrolysis	no detectable hydrolysis	–
PuhA (Arthrobacter globiformis)	–	–	Km ([3]; other: PuhA): 55.0 µM
Cc1nc(N(C)C)nc(OC(=O)N(C)C)c1C [pirimicarb]	slowly turned over	slowly turned over	catalytic efficiency, fold lower than diuron ([1]; PuhA): 10^4 fold; catalytic efficiency, fold lower than diuron ([2]; PuhB): 10^3 fold
CNC(=O)Oc1cccc2ccccc12 [carbaryl]	neither enzyme catalysed the hydrolysis	neither enzyme catalysed the hydrolysis	–
CON(C)C(=O)Oc1ccc(Cl)c(Cl)c1 [carbamate analogue of linuron, 3,4-dichlorophenyl N-methoxy-N-methylcarbamate]	as efficiently as the phenylurea	as efficiently as the phenylurea	–
CON(C)C(=O)Nc1ccc(Cl)c(Cl)c1 [linuron]	–	–	turnover rate (kcat), fold higher than that of diuron ([1]; enzyme not given): ~9 fold; turnover rate (kcat), fold higher than that of diuron ([2]; enzyme not given): ~9 fold
CN(C)C(=O)Nc1ccc(-n2nc(C(C)(C)C)oc2=O)c(Cl)c1 [dimefuron]	no detectable hydrolysis	no detectable hydrolysis	–
